The values that follow come from patent US20250064867A1, “METHOD FOR PREVENTING OR TREATING MUSCLE DISEASE” (KOREA RESEARCH INSTITUTE OF BIOSCIENCE AND BIOTECHNOLOGY, priority 2018, published 2025).

The data set concerns C2C12 myoblasts. Kind of data set: WST-1 cytotoxicity assay on C2C12. As to conditions: 24 hours. Type of data set: cell-based, mouse. How it is done:
First, mouse skeletal muscle C2C12 cell line (CRL-1772, ATCC, Manassas, VA, USA) was purchased and used. To assess the cytotoxicity of dexamethasone and HB05P on C2C12, a WST-1 assay (Cell Proliferation Reagent WST-1, 5015944001, Roche, Basel, Switzerland) was performed. Myoblasts (C2C12) were dispensed at a density of 2.0×10^4 cells/well into 96-well plates (Corning® 96-well Clear Polystyrene Microplates, 3598, Corning, Glendale, AZ, USA) and cultured at 37° C. in 5% CO2 conditions for 24 hours. The cultured cells were then treated with varying concentrations of dexamethasone (0, 250, 500, 750, 1000 μM) and HB05P (0, 1.0×10^3, 1.0×10^4, 1.0×10^5, 1.0×10^6, 1.0×10^7 cells/well). After 24 hours of incubation, cell viability was measured using a VersaMax Microplate Reader (Molecular devices, San Jose, CA, USA).
Background: Formazan colour is commonly taken as a measure of viable cells.

In general, cell viability refers to the share of living cells, or the viability signal relative to a control. Read a low cell viability as a greater loss of cells. `C[C@@H]1C[C@H]2[C@@H]3CCC4=CC(=O)C=C[C@]4(C)[C@@]3(F)[C@@H](O)C[C@]2(C)[C@@]1(O)C(=O)CO` [dexamethasone]: the “cell viability, trend over concentration” value (0, 250, 500, 750, 1000 μM) is on record as “concentration-dependent decrease”. The molecule also showed a cell viability (250 μM, untreated = 100%) of 66.6%.
